Test results as given in ChEMBL document CHEMBL1201862, “PubChem BioAssay data set” (2004).
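Grown in 96-well plates, cells were treated for 48 hours with each compound at five concentrations. Insufficient inhibition: endpoint recorded as highest concentration tested. The concentration for 50% growth inhibition is given as GI50.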 Active and inactive are the calls of the source. Rule as the data show it: active = GI50 up to about 1.1 µM and inactive = higher.

Experiments:
Assay in all cases: NCI tumour cell line growth inhibition, 48 h
[1] = tested on: LOX IMVI
[2] = tested on: OVCAR-4
[3] = tested on: HCC 2998
[4] = tested on: K562
[5] = tested on: SK-OV-3
[6] = tested on: NCI-H226
[7] = tested on: EKVX
[8] = tested on: MOLT-4
[9] = tested on: RXF 393
[10] = tested on: SR
[11] = tested on: SW-620
[12] = tested on: RPMI-8226
[13] = tested on: TK-10
[14] = tested on: HCT-15
[15] = tested on: A549
[16] = tested on: SF-295
[17] = tested on: SNB-19
[18] = tested on: SF-268
[19] = tested on: M19-MEL
[20] = tested on: SNB-78

Structure (SMILES): CCCOC(=O)CCC(NC(=O)c1ccc(Nc2nc3ccccc3nc2-c2cccs2)cc1)C(=O)OCCC (stereo unspecified)
- GI50 [1]: > 100 µM (inactive)
- GI50 [2]: > 100 µM (inactive)
- GI50 [3]: 95.5 µM (inactive)
- GI50 [4]: > 100 µM (inactive)
- GI50 [5]: > 100 µM (inactive)
- GI50 [6]: > 100 µM (inactive)
- GI50 [7]: > 100 µM (inactive)
- GI50 [8]: 2.31 µM (inactive)
- GI50 [9]: 67.9 µM (inactive)
- GI50 [10]: 61.9 µM (inactive)
- GI50 [11]: > 100 µM (inactive)
- GI50 [12]: > 100 µM (inactive)
- GI50 [13]: > 100 µM (inactive)
- GI50 [14]: > 100 µM
- GI50 [15]: > 100 µM (inactive)
- GI50 [16]: > 100 µM (inactive)
- GI50 [17]: > 100 µM (inactive)
- GI50 [18]: > 100 µM (inactive)
- GI50 [19]: > 100 µM (inactive)
- GI50 [20]: > 100 µM (inactive)

Structure (SMILES): Cc1cccc2c1Sc1ccccc1C2NC(=O)CN(C)C (stereo unspecified)
- GI50 [1]: > 100 µM (inactive)
- GI50 [2]: > 100 µM (inactive)
- GI50 [3]: 47.6 µM (inactive)
- GI50 [4]: 81.1 µM (inactive)
- GI50 [5]: > 100 µM (inactive)
- GI50 [6]: > 100 µM (inactive)
- GI50 [7]: > 100 µM (inactive)
- GI50 [8]: 59.7 µM (inactive)
- GI50 [9]: 53.6 µM (inactive)
- GI50 [10]: 54.7 µM (inactive)
- GI50 [11]: > 100 µM (inactive)
- GI50 [12]: 77.8 µM (inactive)
- GI50 [13]: > 100 µM (inactive)
- GI50 [14]: > 100 µM
- GI50 [15]: > 100 µM (inactive)
- GI50 [17]: > 100 µM (inactive)
- GI50 [18]: > 100 µM (inactive)
- GI50 [19]: 47.4 µM (inactive)
- GI50 [20]: > 100 µM (inactive)

Structure (SMILES): Nc1nc(=S)[nH]c2nc3c(c(-c4ccccc4)c12)CCCC3
- GI50 [1]: > 100 µM (inactive)
- GI50 [2]: > 100 µM (inactive)
- GI50 [4]: > 100 µM (inactive)
- GI50 [5]: > 100 µM (inactive)
- GI50 [7]: 50 µM (inactive)
- GI50 [8]: > 100 µM (inactive)
- GI50 [10]: > 100 µM (inactive)
- GI50 [11]: > 100 µM (inactive)
- GI50 [12]: > 100 µM (inactive)
- GI50 [13]: > 100 µM (inactive)
- GI50 [14]: > 100 µM
- GI50 [15]: > 100 µM (inactive)
- GI50 [16]: > 100 µM (inactive)
- GI50 [17]: > 100 µM (inactive)
- GI50 [18]: > 100 µM (inactive)

Structure (SMILES): O=Cc1c(Br)[nH]c2ccccc12
- GI50 [1]: 71.6 µM (inactive)
- GI50 [2]: 56.8 µM (inactive)
- GI50 [3]: > 100 µM (inactive)
- GI50 [4]: > 100 µM (inactive)
- GI50 [5]: 94.4 µM (inactive)
- GI50 [6]: > 58.3 µM (inactive)
- GI50 [7]: > 100 µM (inactive)
- GI50 [8]: 27 µM (inactive)
- GI50 [9]: > 100 µM (inactive)
- GI50 [11]: > 100 µM (inactive)
- GI50 [12]: 19.3 µM (inactive)
- GI50 [14]: > 100 µM
- GI50 [15]: > 100 µM (inactive)
- GI50 [16]: 75.2 µM (inactive)
- GI50 [18]: > 100 µM (inactive)
- GI50 [19]: > 79.6 µM (inactive)
- GI50 [20]: > 67 µM (inactive)
